Measurements published in US20250002492A1, “COMPOSITIONS OF FOLATE ABSORPTION INHIBITORS AND METHODS THEREOF” (THE TEXAS A&M UNIVERSITY SYSTEM, priority 2023, published 2025).

Tested on: C. elegans strain N2
Experiment: Lifespan assay in worms
Assay type: in vivo
Excerpt: The ability of pharmacological or other interventions to extend the lifespan of different organisms is often conserved. For the instant example, the disclosed compounds can be tested for their ability to extend the lifespan of the worm model system Caenorhabditis elegans (N2 strain) [see, e.g., PMID: 19488025]. The organisms can be first exposed to the compounds as adults, 2-3 days after the egg stage until their death, on solid media containing the compounds at the desired concentration. The temperature can be kept constant at 20° C. throughout the assays. The bacteria used as food for the worms (Escherichia coli strain OP-50) can be dead (e.g., killed by lethal doses of ultraviolet radiation) to ensure that any effects on lifespan are not indirect, mediated through bacterial metabolism.
The assays were performed at 20° C. using C. elegans strain N2 and a bacterial strain (OP50) commonly used as food for the worms. Briefly, the assays were performed on solid agar nematode growth media (NGM) plates prepared fresh before each experiment. The bacterial lawn was exposed twice to a UV dose of 120 mJ/cm^2 using a UVC-515 Ultraviolet Multilinker (Ultra-Lum, Inc.). Streaking these UV-exposed bacteria to fresh LB agar plates (1% w/v tryptone, 0.5% w/v yeast extract, 1% w/v sodium chloride) produced no visible colonies. Methotrexate, or the ATIC inhibitor, was first dissolved in DMSO and then added to the media used to prepare the plates after autoclaving (the media were kept in a 50° C. water bath until the plates were poured). Mock-treated control plates contained only DMSO. At the start of each experiment, a sufficient number of eggs were collected from plates without any drugs and then placed on plates containing the indicated doses of each compound tested. After hatching and progression to the adult stage, animals were transferred to new plates (marked as the start of the lifespan assay) containing the drug tested and fluorodeoxyuridine (FUDR; dissolved in water), added at 50 μM to block hatching of new animals. The plates were scored at least every other day until all the worms died. If an animal responded to gentle touch, it was scored as alive, otherwise a death was recorded, and the animal was removed from the plate. Worms were transferred to fresh plates as needed (e.g., if there was evidence of microbial contamination, dryness/cracks on the agar surface, consumption of the bacterial lawn, or hatching of new animals that escaped the FUDR block). The reported lifespans were compiled from several independent experiments done over several months (9-10 months for the methotrexate experiments and 4-5 months for the ATIC inhibitor), each scored by multiple individuals (4-5 persons per experiment). No experiments were excluded from the analysis.

CC(=O)N1CCC(C(=O)N2CCN3C(=O)c4cc(-c5ccccc5)ccc4NC(=O)C3C2)CC1 (stereo not drawn) [MPOL_B_1, 2-(1-acetylpiperidine-4-carbonyl)-8-phenyl-1,3,4,12a-tetrahydrobenzo[e]pyrazino[1,2-a][1,4]diazepine-6,12(2H,11H)-dione]
lifespan effect relative to the effect of methotrexate (same worm assay): 2-3 times | extension of maximal lifespan (worms, 50 and 100 μM): ~30% | extension of mean lifespan (worms, 50 and 100 μM): ~30%
